The assay concerns barnyard grass seeds. In words: Petri dish seed germination method: inhibition of root and stem growth of barnyard grass. Format: in vivo. Particulars: 96 hours incubation. How it is done: (§1) Step 2: Accurately weigh 1 mmol cis-p-menthane-1,8-di-Schiff base compounds and cis-p-menthane-1,8-di-secondary amine compounds respectively, dissolve each of them with 0.25 mL DMF, and add a drop of Tween 80 in each resulted solution. After being fully dissolved, each solution is transferred to a 100 mL volumetric flask respectively and then diluted to the mark with distilled water to obtain a solution with a concentration of 10 mmol/L as the mother liquor. The two-fold dilution method is used to prepare diluted solutions with a series of concentrations (the concentrations of DMF and Tween 80 in the diluted solutions are the same as those in the mother liquor).
(§2) Barnyard grass seeds are placed in a 28° C. incubator and are soaked in an appropriate amount of distilled water for 12 hours there. After the clean water is filtered out, the seeds are then placed in the 28° C. incubator for 24 hours to germinate. Spread 2 pieces of filter paper in each of several Petri dishes, and place 10 barnyard grass seeds with the same size in each dish. Repeat each treatment for three times The dishes are divided into two groups: test dishes and control dishes. Add into each test dish 10 mL of the sample solution with the corresponding concentration of the target compound, and add into each control dish the same amount of the mixture of water, DMF and Tween 80 as the blank control. Add 10 seeds to each of the dishes (both test dishes and control dishes), place them in an artificial climate incubator, and incubate them for 96 hours under a temperature of 28° C., an illumination of 5000 1×, a photoperiod of day:night=16:8 and a relative humidity of 70-80%. The experimental data is processed and analyzed with DPS software to calculate the inhibition rate (y) of cis-p-menthane-1,8-di-secondary amine compounds on the root growth or stem growth of barnyard grass seeds.
Wherein, y is the inhibition rate of root growth or stem growth (%), x0 is the root length or stem length of the control, and x1 is the root length or stem length of the sample.
as §1, with “Accurately” for “Step 2: Accurately”, “cis-p-menthane-1,8-bis-(4-chlorophenyl)Schiff” for “cis-p-menthane-1,8-di-Schiff”, “base” for “base compounds”, “cis-p-menthane-1,8-bis-(4-chlorobenzyl)amine” for “cis-p-menthane-1,8-di-secondary amine compounds”, “(5 mmol/L, 2.5 mmol/L, 1.25 mmol/L, 0.625 mmol/L, 0.3125 mmol/L and 0.1563 mmol/L; the” for “(the”
as §2, with “placed in a 30° C. incubator” for “placed in the 28° C. incubator”, “in each Petri dish,” for “in each of several Petri dishes,”, “each Petri dish, and place” for “several Petri dishes, and place”, “with the above corresponding concentration” for “with the corresponding concentration”, “with DPS software.” for “with DPS software to calculate the inhibition rate (y) of cis-p-menthane-1,8-di-secondary amine compounds on the root growth or stem growth of barnyard grass seeds.”

Each structure is given as a SMILES string.

In the case of `CC(C)(N=Cc1ccc(Br)cc1)[C@H]1CC[C@@](C)(N=Cc2ccc(Br)cc2)CC1` [cis-p-menthane-1,8-bis-(4-bromobenzyl)Schiff base, reference compound], the “inhibition rate on the root growth of barnyard grass seeds” value (shortened to “inhibition rate on the root growth”) reads like this: (0.3125 mmol/L) −3.2%; (0.625 mmol/L) 28.5%; (1.25 mmol/L) 46.8%; (2.5 mmol/L) 72.6%; (5 mmol/L) 69.4%. The “inhibition rate on the stem growth of barnyard grass seeds” value (shortened to “inhibition rate on the stem growth”) reads like this: (0.3125 mmol/L) 6.5%; (0.625 mmol/L) 19.6%; (1.25 mmol/L) 42.3%; (2.5 mmol/L) 39.3%; (5 mmol/L) 55.9%.
In the case of `CC(C)(NCc1ccc(Br)cc1)[C@H]1CC[C@@](C)(NCc2ccc(Br)cc2)CC1` [cis-p-menthane-1,8-bis-(4-bromobenzyl)amine], the “inhibition rate on the root growth” value by setting is: (0.15625 mmol/L) 30.7%; (0.3125 mmol/L) 57.6%; (0.625 mmol/L) 83.4%; (1.25 mmol/L) 89.6%; (2.5 mmol/L) 97.4%; (5 mmol/L) 100.0%. Besides, the “inhibition rate on the stem growth” value is recorded as 25.2% (0.15625 mmol/L); 35.4% (0.3125 mmol/L); 51.7% (0.625 mmol/L); 58.5% (1.25 mmol/L); 88.2% (2.5 mmol/L); 92.3% (5 mmol/L).
Regarding `CC1(NCc2ccc(Cl)cc2)CCC(C(C)(C)NCc2ccc(Cl)cc2)CC1` (stereo not drawn) [cis-p-menthane-1,8-bis-(4-chlorobenzyl)amine], the “inhibition rate on the root growth” value reads like this: (0.15625 mmol/L) 31.4%; (0.3125 mmol/L) 57.1%; (0.625 mmol/L) 87.3%; (1.25 mmol/L) 90.8%; (2.5 mmol/L) 91.6%; (5 mmol/L) 96.7%. In addition, the “inhibition rate on the stem growth” value (0.15625 mmol/L) is 35.7%; the “inhibition rate on the stem growth” value (0.3125 mmol/L) is listed as 41.6%; the “inhibition rate on the stem growth” value (0.625 mmol/L) was found to be 65.8%; the “inhibition rate on the stem growth” value (1.25 mmol/L) was found to be 63.4%; the “inhibition rate on the stem growth” value (2.5 mmol/L) turned out to be 68.0%; the “inhibition rate on the stem growth” value (5 mmol/L) is given as 75.1%.
`CC(C)(N=Cc1ccc(Cl)cc1)[C@H]1CC[C@@](C)(N=Cc2ccc(Cl)cc2)CC1` [cis-p-menthane-1,8-bis-(4-chlorophenyl) Schiff base, reference compound]: the “inhibition rate on the root growth” value (0.3125 mmol/L) is given as −5.0%; the “inhibition rate on the root growth” value (0.625 mmol/L) amounted to 24.3%; the “inhibition rate on the root growth” value (1.25 mmol/L) is listed as 76.7%; the “inhibition rate on the root growth” value (2.5 mmol/L) turned out to be 49.9%; the “inhibition rate on the root growth” value (5 mmol/L) came out at 92.4%. Further, the “inhibition rate on the stem growth” value (0.3125 mmol/L) came to 1.4%; the “inhibition rate on the stem growth” value (0.625 mmol/L) came to 4.6%; the “inhibition rate on the stem growth” value (1.25 mmol/L) turned out to be 23.9%; the “inhibition rate on the stem growth” value (2.5 mmol/L) worked out at 22.8%; the “inhibition rate on the stem growth” value (5 mmol/L) is 20.9%.
With `CN(C)c1ccc(C=NC(C)(C)[C@H]2CC[C@@](C)(N=Cc3ccc(N(C)C)cc3)CC2)cc1` [cis-p-menthane-1,8-bis-(4-dimethylaminobenzyl)Schiff base, reference compound], the “inhibition rate on the root growth” value amounted to 9.7% (0.3125 mmol/L); 45.4% (0.625 mmol/L); 49.8% (1.25 mmol/L); 59.3% (2.5 mmol/L); 67.1% (5 mmol/L). Moreover, the “inhibition rate on the stem growth” value is listed as −12.2% (0.3125 mmol/L); 9.5% (0.625 mmol/L); 6.9% (1.25 mmol/L); 1.9% (2.5 mmol/L); 13.2% (5 mmol/L).
Regarding `CN(C)c1ccc(CNC2(C)CCC(C(C)(C)NCc3ccc(N(C)C)cc3)CC2)cc1` (stereo not drawn) [cis-p-menthane-1,8-bis-(4-dimethylaminobenzyl)amine], the “inhibition rate on the root growth” value worked out at 14.4% (0.15625 mmol/L); 31.0% (0.3125 mmol/L); 21.0% (0.625 mmol/L); 48.1% (1.25 mmol/L); 70.3% (2.5 mmol/L); 89.3% (5 mmol/L). Moreover, the “inhibition rate on the stem growth” value (0.15625 mmol/L) was 19.1%; the “inhibition rate on the stem growth” value (0.3125 mmol/L) is reported as 19.6%; the “inhibition rate on the stem growth” value (0.625 mmol/L) is on record as 24.9%; the “inhibition rate on the stem growth” value (1.25 mmol/L) was found to be 22.3%; the “inhibition rate on the stem growth” value (2.5 mmol/L) is 34.3%; the “inhibition rate on the stem growth” value (5 mmol/L) is 56.6%.
On to `CC1(N=Cc2ccc(F)cc2)CCC(C(C)(C)N=Cc2ccc(F)cc2)CC1` (stereo not drawn) [cis-p-menthane-1,8-bis-(4-fluorobenzyl)Schiff base, reference compound], for which the “inhibition rate on the root growth” value reads like this: (0.3125 mmol/L) 15.7%; (0.625 mmol/L) 72.8%; (1.25 mmol/L) 85.7%; (2.5 mmol/L) 82.9%; (5 mmol/L) 79.7%. For the same compound, the “inhibition rate on the stem growth” value reads like this: (0.3125 mmol/L) −13.7%; (0.625 mmol/L) 2.7%; (1.25 mmol/L) 23.9%; (2.5 mmol/L) 20.1%; (5 mmol/L) 32.3%.
In the case of `CC1(NCc2ccc(F)cc2)CCC(C(C)(C)NCc2ccc(F)cc2)CC1` (stereo not drawn) [cis-p-menthane-1,8-bis-(4-fluorobenzyl)amine], the “inhibition rate on the root growth” value was found to be 38.2% (0.15625 mmol/L); 48.3% (0.3125 mmol/L); 78.6% (0.625 mmol/L); 78.6% (1.25 mmol/L); 98.6% (2.5 mmol/L); 100.0% (5 mmol/L). In addition, the “inhibition rate on the stem growth” value is listed as 7.2% (0.15625 mmol/L); 10.5% (0.3125 mmol/L); 58.3% (0.625 mmol/L); 75.1% (1.25 mmol/L); 85.9% (2.5 mmol/L); 100.0% (5 mmol/L).

For the origin of these results see patent publication US20210161131A1, “cis-p-Menthane-1,8-Di-secondary Amine Compounds as well as Their Preparation Methods and Application in Weed Control” (RESEARCH INSTITUTE OF FORESTRY NEW TECHNOLOGY, CHINESE …, priority 2019, published 2021).
